Reference: patent US12350270B2, “Antimalarial agents” (Merck Sharp & Dohme LLC, priority 2019, dated 2025)

system: parasites (ring stage, in human red blood cell culture); assay: Parasite LDH growth assay (antiparasite potency, Parasite Assay); type: cell-based, Plasmodium falciparum; settings: 0.7% rings, 2% haematocrit, 72 hours at 37° C., LDH readout of parasite growth
Method in brief: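 Ring-stage parasites at 0.7% parasitemia and 2% haematocrit, in RPMI-Hepes/bicarbonate with 5% heat-inactivated human serum and 0.5% albumax, were added to compound-containing medium. Cultures grew 72 h at 37 °C in gassed humidified boxes. Plates were then frozen overnight at −80 °C, thawed 4 h, and growth was measured by LDH assay.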

Row | Structure (SMILES) | EC50
1 | CCC1(CC)CC(=O)N([C@H]2c3cc(C(=O)N[C@@H]4c5ccccc5OC(C)(C)[C@H]4O)ccc3OCC2OC)C(=N)N1 (stereo partly drawn) [Example 67A, (3R,4S)-4-(4,4-diethyl-2-imino-6-oxotetrahydropyrimidin-1(2H)-yl)-N-((3S,4R)-3-hydroxy-2,2-dimethylchroman-4-yl)-3-methoxychromane-6-carboxamide] | 170 nM
2 | CCC1(CC)CC(=O)N([C@H]2c3cc(C(=O)N[C@@H]4c5ccccc5OC(C)(C)[C@H]4O)ccc3OCC2OC)C(=N)N1 (stereo partly drawn) [Example 67B, (3R,4S)-4-(4,4-diethyl-2-imino-6-oxotetrahydropyrimidin-1(2H)-yl)-N-((3S,4R)-3-hydroxy-2,2-dimethylchroman-4-yl)-3-methoxychromane-6-carboxamide] | 0.8 nM
3 | CCC1(CC)CC(=O)N([C@H]2c3cc(C(=O)N[C@@H]4c5ccccc5C[C@H]4O)ccc3OC[C@@H]2OC)C(=N)N1 [Example 69A, (3R,4S)-4-(4,4-diethyl-2-imino-6-oxotetrahydropyrimidin-1(2H)-yl)-N-((1R,2R)-2-hydroxy-2,3-dihydro-1H-inden-1-yl)-3-methoxychromane-6-carboxamide] | 2.6 nM
4 | CCC1(CC)CC(=O)N([C@@H]2CCS(=O)(=O)c3ccc(C(=O)N[C@H]4CC(C)(C)Oc5ccccc54)cc32)C(=N)N1 [Example 70A, (R)-4-(4,4-diethyl-2-imino-6-oxotetrahydropyrimidin-1(2H)-yl)-N-((S)-2,2-dimethylchroman-4-yl)thiochromane-6-carboxamide 1,1-dioxide] | 9.3 nM
5 | CCC1(CC)CC(=O)N([C@H]2c3cc(C(=O)N[C@@H]4c5ccccc5C[C@H]4O)ccc3OCC2OC)C(=N)N1 (stereo partly drawn) [Example 72A, (3R,4S)-4-(4,4-diethyl-2-imino-6-oxotetrahydropyrimidin-1(2H)-yl)-N-((lR,2R)-2-hydroxy-2,3-dihydro-1H-inden-1-yl)-3-methoxychromane-6-carboxamide] | 0.5 nM
6 | CCC1(CC)CC(=O)N([C@H]2c3cc(C(=O)NC4c5ccccc5CC4(C)O)ccc3OC2(C)COC)C(=N)N1 (stereo partly drawn) [Example 76A, (2S,3S)-3-(4,4-diethyl-2-imino-6-oxotetrahydropyrimidin-1(2H)-yl)-N-(2-hydroxy-2-methyl-2,3-dihydro-1H-inden-1-yl)-2-(methoxymethyl)-2-methyl-2,3-dihydrobenzofuran-5-carboxamide] | 8.5 nM
7 | CCC1(CC)CC(=O)N([C@H]2c3cc(C(=O)NC4c5ccccc5CC4(C)O)ccc3OC2(C)COC)C(=N)N1 (stereo partly drawn) [Example 76B, (2S,3S)-3-(4,4-diethyl-2-imino-6-oxotetrahydropyrimidin-1(2H)-yl)-N-(2-hydroxy-2-methyl-2,3-dihydro-1H-inden-1-yl)-2-(methoxymethyl)-2-methyl-2,3-dihydrobenzofuran-5-carboxamide] | 1.1 nM
8 | CCC1(CC)CC(=O)N([C@H]2c3cc(C(=O)NC4c5ccccc5CC4(C)O)ccc3OC2(C)COC)C(=N)N1 (stereo partly drawn) [Example 77A, (2S,3S)-3-(4,4-diethyl-2-imino-6-oxotetrahydropyrimidin-1(2H)-yl)-N-(2-hydroxy-2-methyl-2,3-dihydro-1H-inden-1-yl)-2-(methoxymethyl)-2-methyl-2,3-dihydrobenzofuran-5-carboxamide] | 57.1 nM
9 | CCC1(CC)CC(=O)N([C@H]2c3cc(C(=O)NC4c5ccccc5CC4(C)O)ccc3OC2(C)COC)C(=N)N1 (stereo partly drawn) [Example 77B, (2S,3S)-3-(4,4-diethyl-2-imino-6-oxotetrahydropyrimidin-1(2H)-yl)-N-(2-hydroxy-2-methyl-2,3-dihydro-1H-inden-1-yl)-2-(methoxymethyl)-2-methyl-2,3-dihydrobenzofuran-5-carboxamide] | 21.4 nM

same assay, conditions: Plasmodium falciparum, Erythrocyte, 72 h, 0.7% rings, 2% haematocrit, 72 hours at 37° C., LDH readout of parasite growth

Row | Structure (SMILES) | EC50
10 | CC1(C)CC(=O)N([C@@H]2CCOc3ccc(C(=O)N[C@@H]4c5ccccc5C[C@H]4O)cc32)C(=N)N1 [Example 61A, (R)-N-((1R,2R)-2-hydroxy-2,3-dihydro-1H-inden-l-yl)-4-(2-imino-4,4-dimethyl-6-oxotetrahydropyrimidin-1(2H)-yl)chromane-6-carboxamide] | 8.4 nM
11 | CC1(C)CC(=O)N([C@@H]2CCOc3ccc(C(=O)N[C@@H]4c5ccccc5OC(C)(C)[C@H]4O)cc32)C(=N)N1 [Example 62A, (R)-N-((3S,4R)-3-hydroxy-2,2-dimethylchroman-4-yl)-4-(2-imino-4,4-dimethyl-6-oxotetrahydropyrimidin-1(2H)-yl)chromane-6-carboxamide] | 1.2 nM
12 | CCC1(CC)CC(=O)N([C@@H]2CCOc3ccc(C(=O)NC4CC(=O)Oc5ccccc54)cc32)C(=N)N1 (stereo partly drawn) [Example 63A, (4R)-4-(4,4-diethyl-2-imino-6-oxotetrahydropyrimidin-1(2H)-yl)-N-(2-oxochroman-4-yl)chromane-6-carboxamide] | 220 nM
13 | CCC1(CC)CC(=O)N([C@@H]2CCOc3ccc(C(=O)N4Cc5ccccc5C4)cc32)C(=N)N1 [Example 66A, (R)-6,6-diethyl-2-imino-3-(6-(isoindoline-2-carbonyl)chroman-4-yl)tetrahydropyrimidin-4(1H)-one] | 76 nM
14 | CCC1(CC)CC(=O)N([C@H]2c3cc(C(=O)N[C@H]4CC(C)(C)Oc5ccccc54)ccc3OCC2OC)C(=N)N1 (stereo partly drawn) [Example 68A, (3R,4S)-4-(4,4-diethyl-2-imino-6-oxotetrahydropyrimidin-1(2H)-dimethylchroman-4-yl)-3-methoxychromane-6-carboxamide] | 1 nM
15 | CCC1(CC)CC(=O)N([C@@H]2CCS(=O)(=O)c3ccc(C(=O)N[C@@H]4c5ccccc5OC(C)(C)[C@H]4O)cc32)C(=N)N1 [Example 71A, (R)-4-(4,4-diethyl-2-imino-6-oxotetrahydropyrimidin-1(2H)-yl)-N-((3S,4R)-3-hydroxy-2,2-dimethylchroman-4-yl)thiochromane-6-carboxamide 1,1-dioxide] | 3.5 nM
16 | CCC1(CC)CC(=O)N([C@H]2c3cc(C(=O)N[C@@H]4c5ccccc5C[C@H]4O)ccc3O[C@@]2(C)COC)C(=N)N1 [Example 75A, (2R,3S)-3-(4,4-diethyl-2-imino-6-oxotetrahydropyrimidin-1(2H)-yl)-N-((1R,2R)-2-hydroxy-2,3-dihydro-1H-inden-1-yl)-2-(methoxymethyl)-2-methyl-2,3-dihydrobenzofuran-5-carboxamide] | 0.4 nM
17 | CCC1(CC)CC(=O)N([C@H]2c3cc(C(=O)N[C@@H]4c5ccccc5C[C@H]4O)ccc3O[C@]2(C)COC)C(=N)N1 [Example 75B, (2S,3S)-3-(4,4-diethyl-2-imino-6-oxotetrahydropyrimidin-1(2H)-yl)-N-((1R,2R)-2-hydroxy-2,3-dihydro-1H-inden-1-yl)-2-(methoxymethyl)-2-methyl-2,3-dihydrobenzofuran-5-carboxamide] | 9.5 nM
18 | CC1(C)CC(=O)N([C@@H]2CCc3ccc(C(=O)N[C@@H]4c5ccccc5C[C@H]4O)cc32)C(=N)N1 [Example 78, (3R)-N-[(1R,2R)-2-hydroxyindan-1-yl]-3-(2-imino-4,4-dimethyl-6-oxo-hexahydropyrimidin-1-yl)indane-5-carboxamide] | 8.9 nM
19 | CC1(C)CC(=O)N([C@@H]2CCc3ccc(C(=O)N[C@@H]4c5ccccc5C[C@]4(C)O)cc32)C(=N)N1 [Example 79, (3R)-N-[(1R,2S)-2-hydroxy-2-methyl-indan-1-yl]-3-(2-imino-4,4-dimethyl-6-oxo-hexahydropyrimidin-1-yl)indane-5-carboxamide] | 9.6 nM
20 | CC1(C)CC(=O)N([C@@H]2CCc3ccc(C(=O)N[C@@H]4c5ccccc5C[C@@]4(C)O)cc32)C(=N)N1 [Example 80, (3R)-N-[(1R,2R)-2-hydroxy-2-methyl-indan-1-yl]-3-(2-imino-4,4-dimethyl-6-oxo-hexahydropyrimidin-1-yl)indane-5-carboxamide] | 18 nM
21 | CC[C@]1(C)CC(=O)N([C@@H]2CCc3ccc(C(=O)N[C@@H]4c5ccccc5C[C@H]4O)cc32)C(=N)N1 [Example 81, (3R)-3-[(4R)-4-ethyl-2-imino-4-methyl-6-oxo-hexahydropyrimidin-1-yl]-N-[(1R,2R)-2-hydroxyindan-1-yl]indane-5-carboxamide] | 6.6 nM
22 | C[C@@H]1C[C@@H](N2C(=N)NC(C)(C)CC2=O)c2cc(C(=O)N[C@@H]3c4ccccc4C[C@H]3O)ccc21 [Example 82, (1R,3R)-N-[(1R,2R)-2-hydroxyindan-1-yl]-3-(2-imino-4,4-dimethyl-6-oxo-hexahydropyrimidin-1-yl)-1-methyl-indane-5-carboxamide] | 15.5 nM
23 | CCC1(CC)CC(=O)N([C@@H]2Cc3ccc(C(=O)N[C@@H]4c5ccccc5C[C@H]4O)cc32)C(=N)N1 [Example 83, (8R)-8-(4,4-diethyl-2-imino-6-oxo-hexahydropyrimidin-1-yl)-N-[(1R,2R)-2-hydroxyindan-1-yl]bicyclo[4.2.0]octa-1(6),2,4-triene-3-carboxamide] | 20 nM
24 | CC1(C)CC(=O)N([C@@H]2CCc3ccc(C(=O)N[C@H]4CC(C)(C)Oc5ccccc54)cc32)C(=N)N1 [Example 84, (3R)-N-[(4S)-2,2-dimethylchroman-4-yl]-3-(2-imino-4,4-dimethyl-6-oxo-hexahydropyrimidin-1-yl)indane-5-carboxamide] | 0.9 nM
25 | CCC1(CC)CC(=O)N([C@@H]2CCc3ccc(C(=O)N[C@@H]4c5ccccc5C[C@H]4O)cc32)C(=N)N1 [Example 85, (3R)-3-(4,4-diethyl-2-imino-6-oxo-hexahydropyrimidin-1-yl)-N-[(1R,2R)-2-hydroxyindan-1-yl]indane-5-carboxamide] | 10.7 nM
26 | CC1(C)CC(=O)N(C2CC(C)(C)c3ccc(C(=O)N[C@@H]4c5ccccc5C[C@H]4O)cc32)C(=N)N1 (stereo partly drawn) [Example 86, N-[(1R,2R)-2-hydroxyindan-1-yl]-3-(2-imino-4,4-dimethyl-6-oxo-hexahydropyrimidin-1-yl)-1,1-dimethyl-indane-5-carboxamide] | 87.8 nM
27 | CC1(C)CC(=O)N([C@H]2c3cc(C(=O)N[C@@H]4c5ccccc5C[C@H]4O)ccc3CC2(C)C)C(=N)N1 [Example 87, N-[(1R,2R)-2-hydroxyindan-1-yl]-3-(2-imino-4,4-dimethyl-6-oxo-hexahydropyrimidin-1-yl)-2,2-dimethyl-indane-5-carboxamide] | 105 nM
